In patent publication US8182793B2, “Sunless tanning products and processes” (Concept Laboratories, priority 2004, dated 2012):
Where two headings read alike, the source gives them in different places.

How the values were obtained:
[1] = Water activity (aw) measured with Aqualab 3TE instrument; type: physicochemical; conditions: for Reduction of water activity compared with other screened materials (in words): additive screening, aqueous solutions
Source text: There is no device that can be put into a product to directly measure the water activity. However, the water activity of a product can be determined, indirectly, from the relative humidity of the air surrounding the sample when the air and the sample are at equilibrium. Therefore, the sample must be in an enclosed space where this equilibrium can take place. Once this occurs, the water activity of the sample and the relative humidity of the air are equal. The measurement taken at equilibrium is called an equilibrium relative humidity or ERH.
In practice, water activity can be determined by use of the Aqualab© (Decagon, Inc., Pullman, Wash.) or HygroLab© (Rotronic, Inc., Huntington, N.Y.). For all of the experimental water activity data recorded and detailed in this application, an Aqualab 3T-E instrument with an accuracy of +/−0.003 units and with automatic temperature equilibration (23.7+/−0.2° C.) capability was utilized.
In the AquaLab instrument, a sample is equilibrated within the headspace of a sealed chamber containing a mirror, an optical sensor, an internal fan, and an infrared temperature sensor. At equilibrium, the relative humidity of the air in the chamber is the same as the water activity of the sample. A thermoelectric (Peltier) cooler precisely controls the mirror temperature. An optical reflectance sensor detects the exact point at which condensation first appears. A beam of infrared light is directed onto the mirror and reflected back to a photodetector which detects the change in reflectance when condensation occurs on the mirror. A thermocouple attached to the mirror accurately measures the dew-point temperature. The internal fan is for air circulation, which reduces vapor equilibrium time and controls the boundary layer conductance of the mirror surface. Additionally, a thermopile sensor (infrared thermometer) measures the sample surface temperature. Both the dew point and sample temperatures are then used to determine the water activity. During a water activity measurement, the AquaLab repeatedly determines the dew-point temperature until vapor equilibrium is reached. Since the measurement is based on temperature determination, calibration is not necessary, but measuring a standard salt solution checks proper functioning of the instrument. If there is a problem, the mirror is easily accessible and can be cleaned in a few minutes.
Sunless tanning formulations typically contain 3-10% by weight of DHA as the primary tanning agent dissolved in water. DHA is a water soluble sugar, and, as with other sugars or solutes will decrease the water activity as compared to pure water (aw=1.00). Solutes dilute the water, increasing its entropy and therefore lowering its energy state. These two effects combine to lower the total free energy of the water.
An arbitrary upper limit of 0.900 for aqueous solutions of additives was set for the screening studies. In other words, any cosmetic or pharmaceutical additive investigated must lower the aw of water from 1.000 to 0.900 or below when tested at a concentration that was judged to be the upper practical limit for inclusion based on safety and general cosmetic acceptability.

skin [2] = experiment: Tanning response on forearm skin, visual assessment of color development on a 1-6 point scale; type: in vivo, human
Procedure: Simple aqueous formulations of dihydroxyacetone and sodium lactate were first evaluated for tanning response on skin. The formulations evaluated and the tanning responses obtained are shown in Tables 3 (formulations) and Table 4 (tanning response of Table 3 formulas).
(§1) An equal amount of each formula (approximately 150 mg.) from Table 3 was applied to 2″×2″ adjacent sections of forearm, allowed to dry and covered with clothing for the duration of the testing. The application areas were visibly the same color prior to treatment with the solutions and this was confirmed via calorimeter readings. Visual assessment of color development was made 24 hours post application using a 1-6 point scale with 1 signifying no color development versus non-treated skin, 3 signifying moderate color development and 6 signifying intensely dark color development. A commercial sunless tanning solution containing 10% DHA was used as a positive control.
as §1, with “As before, an equal” for “An equal”, “Table 5” for “Table 3”, “via colorimeter” for “via calorimeter”, “24 hours and at 48” for “24”, “development.” for “development. A commercial sunless tanning solution containing 10% DHA was used as a positive control.”
A control formula containing 10% DHA, 5% butylene glycol and 5% methylsulfonylmethane was used as a positive control. Past studies as outlined in applicants' co-pending application Ser. No. 10/382,868 titled SUNLESS TANNING PRODUCTS AND PROCESSES, filed on Mar.

stratum corneum = experiment: In vivo water binding capacity, Nova Dermal Phase Meter (conductance); conditions: added to aqueous solutions of DHA
Procedure: In addition to the water activity screening and the tanning experiments conducted with simple aqueous solutions of DHA, sodium lactate, and glycols, objective instrumental testing for in vivo water binding capacity of these DHA-sodium lactate-glycol solutions was conducted.
The Nova Meter measures water content of the top layers of the skin indirectly via conductance measurements.

[3] = moisture loss figure, Purac citation (Osipow); cited from earlier work
skin [4] = conditions: earlier studies of the applicant in prior filings Ser. No. 10/382,868 & 10/694,972; cited from earlier work

CC(O)C(=O)[O-].[Na+] (stereo not drawn) [Sodium Lactate, sodium lactate]
Water Activity (aw) ([1]; Sodium Lactate 6.0 % w/w): 0.991
Water Activity (aw) ([1]; Sodium Lactate 12.0 % w/w): 0.944
Water Activity (aw) ([1]; Sodium Lactate 18.0 % w/w): 0.913
Water Activity (aw) ([1]; Sodium Lactate 24.0 % w/w): 0.880
Water Activity (aw) ([1]; Sodium Lactate 30.0 % w/w): 0.840
Reduction of water activity compared with other screened materials (in words) [1]: capable of reducing the water activity to a greater extent than any other material screened
Water activity (Aw) ([1]; aqueous solutions at concentrations of 25% w/w or less): below 0.900
Concentration meeting the screening criterion of reduction of aw to 0.900 or less ([1]; read from Table 2): 18-24%
Effect on the tanning response of DHA (skin [2]; added to 5% DHA solutions): enhancement of the tanning response was recorded
Effect on the tanning response of DHA (skin [2]; use concentrations of 0.5-5.0%): Enhance the tanning response of DHA
Water holding capacity of the stratum corneum (moisturizing effect) (stratum corneum): improve the water holding capacity of the stratum corneum
Water-holding capacity [3]: double the capacity of glycerin

O=C1CCC(C(=O)[O-])N1.[Na+] (stereo not drawn) [Sodium PCA, sodium pyrrolidone carboxylic acid]
Reduction of water activity compared with other screened materials (in words) [1]: capable of reducing the water activity to a greater extent than any other material screened

OCC(O)CO [glycerol, reference compound]
Lowering of water activity compared with other glycols (in words) ([1]; 10% in 10% DHA solution, Table 1): lower the water activity to a greater extent than the other glycols evaluated
Effect on the tanning response of DHA (skin [4]): somewhat of an inhibitory effect on the tanning response of DHA
Water-holding capacity [3]: equal water-holding capacity

CC(O)C(=O)O (stereo not drawn) [lactic acid]
Effect on the tanning response of DHA (skin [2]; added to 5% DHA solutions): enhancement of the tanning response was recorded
Water-holding capacity [3]: equal water-holding capacity
